Assay [1] has as its system CHO-K1. Nature of the assay: Relationship between concentration of each peptide solution and viable cell count (absorbance). It counts as cell-based. Particulars: for Absorbance (450 nm): 5 days, MEMα without FBS, n = 3 average, 0 mM = 0.0000; for cell growth promotion, order of the peptides: in words, promoted in the order GEK, DGP, AGK, GPP, GGP, AEK, AGG, ASN, EGK (strongest first). As to the method: Peptides having the sequences of Gly-Glu-Lys (GEK), Asp-Gly-Pro (DGP), Ala-Gly-Lys (AGK), Gly-Pro-Pro (GPP), Gly-Gly-Pro (GGP), Ala-Glu-Lys (AEK), Ala-Gly-Gly (AGG), Ala-Ser-Asn (ASN), and Glu-Gly-Lys (EGK), and Gly-Gly-Gly (GGG) are synthesized to prepare each of peptide solutions at 10-fold concentrations shown in Tables 1 to 10.
A cell suspension prepared such that CHO-K1 (RI KEN BioResource Research Center, cell number: RCB2330) was at 3×10^4 cells/mL was seeded in a 96-well plate at 100 μL/well and cultured in an incubator at 37° C. and 5% CO2 for 24 hours. As a culture medium, an MEMα culture medium (Gibco) containing 10% FBS was used.
After removing the culture medium from each well and washing with the MEMα culture medium (100 μL), 90 μL of a new MEMa culture medium was dispensed into each well, and each peptide solution (10 μL) was added (total 100 μL/well) such that final concentrations were within a range of 0 mM to 5 mM as shown in Tables 1 to 10 to perform culture for 5 days. A similar culture test was performed using a system containing neither peptide nor FBS as a comparative sample. After culturing for 5 days, 10 μL/well of a viable cell count measurement reagent SF (Nacalai Tesque Inc.) was added, and a color reaction was carried out in an incubator at 37° C. and 5% CO2 for 2 hours to measure an absorbance at 450 nm with a plate reader. A reference wavelength was 630 nm. It was confirmed that the absorbance at 450 nm correlated with the cell number.
The above preparation, culture, and measurement were performed with n=3, and Tables 1 to 10 and FIGS. 1 to 10 show the absorbance at the concentration of each peptide solution.

Assay [2] deals with CHO-K1. In words: Cell growth test of each peptide on coating agent for 5 days. Format: cell-based. Also noted: Viability, 1 / Viability, 2 / Viability, 3 / Viability, Mean: unit not given here. The note with it: 2.0 mM Ala-Gly-Lys, 2.1 mM Gly-Glu-Lys, 2.5 mM Gly-Gly-Gly, poly-L-lysine coating. As to the method:
Peptides having the sequences of Asp-Gly-Pro (DGP), Ala-Gly-Lys (AGK), Gly-Glu-Lys (GEK), and Gly-Gly-Gly (GGG) were synthesized to prepare each peptide solution such that the concentration was a concentration at which the cell number increased the most within a range of 0 mM to 5 mM. In other words, Asp-Gly-Pro (DGP) was adjusted to 22 mM, Ala-Gly-Lys (AGK) was adjusted to 20 mM, Gly-Glu-Lys (GEK) was adjusted to 21 mM, and Gly-Gly-Gly (GGG) was adjusted to 25 mM, and an amount of 1/10 of the total culture medium volume was added to each well immediately before the cell culture test such that final concentrations were 2.2 mM, 2.0 mM, 2.1 mM, and 2.5 mM, respectively. Poly-L-lysine (Peptide Institute, Inc., Poly-L-Lysine Hydrochloride, code: 3075) was prepared to 0.1 mg/mL, and 200 μL was dispensed into each well of a 24-well plate, which was left to stand in an incubator at 37° C. for 2 hours. After removing the residual liquid with an aspirator, rinsing was performed with distilled water, irradiation was performed with a UV lamp in a clean bench without a lid, and drying was performed overnight to sterilize. A cell suspension prepared such that CHO-K1 (RIKEN BioResource Research Center, cell number: RCB2330) was at 4×10^4 cells/mL was seeded in each well of a 24-well plate at 500 μL/well and cultured in an incubator at 37° C. and 5% CO2 for 24 hours. As a culture medium, an MEMα culture medium (Gibco) containing 10% FBS was used.
After removing the culture medium from each well and washing with the MEMα culture medium (500 μL), 450 μL of a new MEMα culture medium was dispensed into each well, and each peptide solution (50 μL) was added (total 500 μL/well) to perform culture for 5 days. The cells were recovered to count the cell number. A similar culture test was performed using a system containing neither peptide nor FBS as a comparative sample.
The culture medium in each well was recovered in a 1.5 mL tube to be rinsed with 200 μL of MEMα, and the rinsed liquid was also recovered in the same 1.5 mL tube. Thereafter, 100 μL of trypsin was added and incubated for 3 minutes. After rinsing with 300 μL of MEMα containing 10% FBS, the rinsed liquid was also recovered in the same 1.5 mL tube. After rinsing again with 200 μL of MEMα containing 10% FBS, the rinsed liquid was also recovered in the same 1.5 mL tube.
A centrifugation operation was performed on the cells recovered in the 1.5 mL tube. The centrifugation conditions were 1,000 rpm, 10 minutes, and 4° C.
The supernatant was removed, and 300 μL of Cold PBS (phosphate buffered saline) was added to perform a centrifugation operation under the same conditions. The present operation was repeated twice.
Suspension was carried out with 100 μL of Binding Buffer, and 2 μL of propidium iodide (PI) was added and stirred in the tube to cause a reaction for 15 minutes at room temperature and with light shielding. Thereafter, the viable cell count and the cell viability were measured with a flow cytometer.
The above preparation, culture, and measurement were performed with n=3. Table 15 and FIG. 15 show the viable cell count in each peptide solution, and Table 16 and FIG. 16 show the cell viability in each peptide solution.

Setting [3] is: replicate 1, 2.2 mM Asp-Gly-Pro.
[4] abbreviates: replicate 2, 2.2 mM Asp-Gly-Pro.
[5] abbreviates: replicate 3, 2.2 mM Asp-Gly-Pro.

Regarding Ala-Glu-Lys [AEK], the “Absorbance (450 nm)” value is on record as 0.0350 with CHO-K1 [1] (0.129 mM peptide); 0.1143 with CHO-K1 [1] (0.259 mM peptide); 0.1927 in the assay on CHO-K1 [1] (0.516 mM peptide); 0.2337 with CHO-K1 [1] (1.03 mM peptide); 0.5013 with CHO-K1 [1] (2.06 mM peptide); 0.4857 with CHO-K1 [1] (4.13 mM peptide). The “cell growth promotion, order of the peptides” value (“cell growth promotion, order” for short) in the assay on CHO-K1 [1] is “cell growth was promoted”.
Regarding Ala-Gly-Gly [AGG], the “Absorbance (450 nm)” value in the assay on CHO-K1 [1] (0.156 mM peptide) turned out to be 0.0277; in the assay on CHO-K1 [1] (0.313 mM peptide) it was 0.0274; with CHO-K1 [1] (0.625 mM peptide) it was 0.0967; with CHO-K1 [1] (1.25 mM peptide) it was 0.2064; with CHO-K1 [1] (2.5 mM peptide), 0.3357; in the assay on CHO-K1 [1] (5 mM peptide), 0.2080. Besides, the “cell growth promotion, order” value with CHO-K1 [1] is “cell growth was promoted”.
Turning to Ala-Ser-Asn, the “Absorbance (450 nm)” value in the assay with CHO-K1 [1] (0.138 mM peptide) is reported as −0.0527; with CHO-K1 [1] (0.276 mM peptide) it was −0.0250; with CHO-K1 [1] (0.552 mM peptide), −0.0214; in the assay with CHO-K1 [1] (1.10 mM peptide), −0.0224; in the assay on CHO-K1 [1] (2.21 mM peptide), 0.1170; with CHO-K1 [1] (4.42 mM peptide) it was 0.3320. In addition, in the assay on CHO-K1 [1], the “cell growth promotion, order” value is on record as “cell growth was promoted”.
With Glu-Gly-Lys [EGK], the “Absorbance (450 nm)” value amounted to 0.0383 in the assay with CHO-K1 [1] (0.128 mM peptide); 0.1123 with CHO-K1 [1] (0.257 mM peptide); 0.0893 in the assay with CHO-K1 [1] (0.512 mM peptide); 0.1503 with CHO-K1 [1] (1.02 mM peptide); 0.1876 in the assay on CHO-K1 [1] (2.05 mM peptide); 0.2373 in the assay on CHO-K1 [1] (4.10 mM peptide). In addition, in the assay with CHO-K1 [1], the “cell growth promotion, order” value was “cell growth was promoted”.
Take Gly-Gly-Gly [GGG, reference compound]: the “Absorbance (450 nm)” value with CHO-K1 [1] (0.156 mM peptide) was 0.0067; in the assay with CHO-K1 [1] (0.313 mM peptide), 0.0037; in the assay on CHO-K1 [1] (0.625 mM peptide), 0.0027; in the assay on CHO-K1 [1] (1.25 mM peptide), −0.0013; in the assay with CHO-K1 [1] (2.5 mM peptide) it was 0.0013; in the assay with CHO-K1 [1] (5 mM peptide), 0.0083. Also, the “Cells cell count, Mean” value in the assay on CHO-K1 [2] (mean n=3, 2.2 mM Asp-Gly-Pro) is on record as 0.0502 ×10^4. Further, the “Viability, Mean” value in the assay with CHO-K1 [2] (mean n=3, 2.2 mM Asp-Gly-Pro) came out at 1.7. The “Cells cell count, 1” value with CHO-K1 [2] (setting [3]) was 0.1360 ×10^4. In addition, the “Viability, 1” value with CHO-K1 [2] (setting [3]) was determined as 4.45. Moreover, in the assay on CHO-K1 [2] (setting [4]), the “Cells cell count, 2” value was 0.0080 ×10^4. For the same substance, in the assay with CHO-K1 [2] (setting [4]), the “Viability, 2” value came to 0.31. Also, the “Cells cell count, 3” value with CHO-K1 [2] (setting [5]) is 0.0065 ×10^4. In the assay on CHO-K1 [2] (setting [5]), the “Viability, 3” value is recorded as 0.21.
Gly-Gly-Pro [GGP]: the “Absorbance (450 nm)” value is reported as 0.0420 in the assay with CHO-K1 [1] (0.135 mM peptide); 0.0966 with CHO-K1 [1] (0.270 mM peptide); 0.2946 with CHO-K1 [1] (0.539 mM peptide); 0.4653 with CHO-K1 [1] (1.08 mM peptide); 0.5483 with CHO-K1 [1] (2.16 mM peptide); 0.3286 in the assay with CHO-K1 [1] (4.31 mM peptide). The “cell growth promotion, order” value in the assay with CHO-K1 [1] is “cell growth was promoted”.
